Laboratory results: PMC5577450, “An ancient FMRFamide-related peptide–receptor pair induces defence behaviour in a brachiopod larva” (Open Biology, 2017)

Legend:
[1] = test system: Terebratalia transversa larvae; experiment: Behavioural assay: full contraction / defence stance of larvae exposed to synthetic peptides; format: in vivo; details: for contraction reaction of larvae (in words): at 50 µmol l^−1 (maximum concentration cutoff); for necessary concentration to induce defense stance (full contraction): > 50 stands for 'no contraction at 50 µM'
Method: The reaction of larvae to synthetic peptides (GenScript) that were predicted from the prepropeptide sequence were tested and compared with the reactions to peptides with non-native modifications. Freely swimming larvae were exposed to different concentrations of peptides in 4-well and 6-well plates (1 ml and 5 ml total volume per well, respectively), and their reactions were observed under a stereomicroscope. To determine the efficiency of the native and modified peptides, the larvae were tested for the necessary minimum concentration at which they fully contracted and spread their chaetae, using 30–100 larvae in each test. To get an estimation of the peptide concentration that was necessary to induce a complete contraction, the larvae were initially exposed to 50 nmol l^−1 of the respective peptide and the concentration was then increased stepwise until the larvae fully contracted or a concentration of 50 µmol l^−1 was reached as an upper cutoff. […] To test the influence of the peptides on the vertical distribution of larvae in a water column, freely swimming larvae (50–100 per treatment) were exposed to peptides in transparent 4.5 ml cuvettes. About 60 s after addition of the peptides, the larvae were recorded with a digital camera (DMK 31AU03 camera, The Imaging Source) in a darkened box with artificial top-illumination. All experiments were repeated at least once with a different batch of larvae from another fertilization and the outcome was averaged. Control animals were exposed to DMSO only.

[2] = test system: T. transversa FLRFamide receptor; experiment: Receptor deorphanization: luminescence response of transfected CHO-K1 cells; format: cell-based, Terebratalia transversa; details: fixed peptide concentration 1 µmol l^−1 (figure 4a)
Source text: For the receptor deorphanization, the procedure was used as described by Bauknecht & Jékely: full-length open reading frames of the receptor candidate sequences were amplified by PCR from cDNA of mixed larval stages. The forward primers included a 5′ attachment consisting of a spacer, an EcoR1 or BamH1 restriction site and a Kozak sequence and the reverse primers included a 5′ attachment consisting of a spacer and a Not1 restriction site (see the electronic supplementary material for primer sequences). […] The luminescence response of the transfected cells was measured in a plate reader (BioTek Synergy Mx or Synergy H4, BioTek, Winooski, USA) over 45 s after addition of the neuropeptides. […] Dose–response curves were calculated using PRISM 6 (GraphPad, La Jolla, USA) and normalized against the upper plateau values (100% activation).
Figure 4. Luminescence response of T. transversa FLRFamide receptor expressing CHO-K1 cells to different peptides. (a) Relative luminescence of T. transversa FLRFamide receptor expressing cells after exposure to different peptides with a fixed concentration of 1 µmol l^−1. […] Luminescence values are given relative to maximum luminescence (max = 1). RLU relative luminescence.

[3] = test system: late chaetous larvae of P. dumerilii; experiment: Behavioural test of the orthologue peptide for a defence reaction; format: in vivo, Platynereis dumerilii; details: no defence reaction even above this concentration
[4] = test system: late chaetous larvae of Novocrania anomala; experiment: as above; format: in vivo; details: no defence reaction even above this concentration

Sequence of T. transversa FLRFamide receptor (as listed by the source): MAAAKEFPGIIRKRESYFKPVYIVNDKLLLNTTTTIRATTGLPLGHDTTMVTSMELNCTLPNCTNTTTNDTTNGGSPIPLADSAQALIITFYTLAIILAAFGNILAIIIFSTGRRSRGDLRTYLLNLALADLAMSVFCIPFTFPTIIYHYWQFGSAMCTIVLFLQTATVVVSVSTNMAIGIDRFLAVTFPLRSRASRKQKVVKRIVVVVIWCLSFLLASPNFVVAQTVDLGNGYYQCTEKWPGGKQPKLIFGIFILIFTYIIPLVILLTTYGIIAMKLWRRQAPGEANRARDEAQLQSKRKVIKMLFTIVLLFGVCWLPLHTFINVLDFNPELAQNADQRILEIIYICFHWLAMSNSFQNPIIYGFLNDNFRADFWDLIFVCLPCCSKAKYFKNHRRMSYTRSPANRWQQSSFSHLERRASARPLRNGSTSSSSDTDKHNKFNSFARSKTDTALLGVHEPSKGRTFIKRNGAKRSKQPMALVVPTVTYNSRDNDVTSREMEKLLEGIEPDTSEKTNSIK

AFLRLamide [modified AFLRFamide with C-terminal leucine]
contraction reaction of larvae (in words) [1]: no reaction at all

AFLRWamide [modified AFLRFamide with amidated C-terminal tryptophan]
necessary concentration to induce defense stance (full contraction) ([1]; batch 1): 20 µM
necessary concentration to induce defense stance (full contraction) ([1]; batch 2): 20 µM
concentration triggering full contraction / defence stance (minimum necessary concentration) ([1]; cutoff 50 µmol l^−1): 20 µmol/L
reduction of effectiveness on changing the amidated C-terminal phenylalanine to an amidated tryptophan ([1]; relative to the corresponding Famide peptide): about 10 fold

DFLRLamide [modified DFLRFamide with C-terminal leucine]
luminescence response of FLRFamide receptor expressing CHO-K1 cells (in words) [2]: barely higher than the negative control
contraction reaction of larvae (in words) [1]: very weak contraction

FMRFamide [orthologue of AFLRFamide/DFLRFamide in P. dumerilii]
concentration inducing a defence reaction [3]: above 50 µmol l^−1

YMRFamide [orthologue of AFLRFamide/DFLRFamide]
concentration inducing a defence reaction [4]: above 50 µmol l^−1
necessary concentration to induce defense stance (full contraction) ([1]; batch 1): 10 µM
necessary concentration to induce defense stance (full contraction) ([1]; batch 2): 15 µM
